One assay concerns WM1552C (Melanoma). Briefly: combination Emax (second highest fraction inhibited in the dose matrix, 72 h); higher = more inhibition; extreme values may be limits of the assay. Summed up:
(§1)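 After 24 hours at 37°C and 5% CO2 in 1536-well plates, cells in DMEM/F12 or RPMI plus 10% FBS received two-drug dose matrices for 72 hours. Viability came from CellTiter-Glo 2.0 luminescence and was scaled as inhibition, anchored at 0 by vehicle wells and at 1 by blank wells. Combination Emax is taken as the second-highest inhibition in the matrix, and Bliss excess as the observed combination effect less EA + EB − EA·EB, with EA and EB the single-agent effects.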

Assay [1] deals with HCC1395 (Breast Carcinoma). Described as above. Put shortly:
as §1

Assay [2] has as its system NCI-H1651 (Lung Adenocarcinoma). Put plainly: Bliss excess, mean over the matrix (fraction); higher = more synergy. Put shortly:
as §1

The subject of another assay is EB2 (Burkitt's Lymphoma). Described as above. Put shortly: as §1
The test system of the next assay is IM-9 (Non-Cancerous). Described as above. Put shortly: as §1
In a further assay the test system is EW-7 (Ewing's Sarcoma). The assay is described as above. Put shortly:
as §1

For a further assay, the system named is 769-P (Kidney Carcinoma). The assay is described as above. Summed up:
as §1

Assay [3] deals with KYSE-220 (Esophageal Squamous Cell Carcinoma). The assay is described as above. Put shortly:
as §1

The subject of the next assay is HCC70 (Breast Carcinoma). Described as above. Put shortly: as §1
For assay [4], the system named is JHH-2 (Hepatocellular Carcinoma). The assay is described as above. Put shortly:
as §1
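Wherever Bliss excess, mean over the matrix is given: after 72 h of two-drug dosing.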

As for `C[C@@H](Oc1cc(-c2cnn(C3CCNCC3)c2)cnc1N)c1c(Cl)ccc(F)c1Cl` [Crizotinib] + CC1=C(C(=CC=C1)Cl)NC(=O)C2=CN=C(S2)NC3=CC(=NC(=N3)C)N4CCN(CC4)CCO [Dasatinib] (first compound max 10 µM, 7x7, partner max 2 µM), the figures for the “combination Emax” value (in the assay on WM1552C (Melanoma); in assay [1]) were 0.959 and 0.88, respectively. Also, the Bliss excess is -0.0149 in assay [2]; 0.0112 with EB2 (Burkitt's Lymphoma); 0.0001 with IM-9 (Non-Cancerous); -0.0072 in the assay with EW-7 (Ewing's Sarcoma); -0.0405 with 769-P (Kidney Carcinoma); -0.0166 in assay [3]. Also, the Bliss excess in the assay on HCC70 (Breast Carcinoma) is -0.0407; in assay [4] it was -0.0101.

For `C[C@@H](Oc1cc(-c2cnn(C3CCNCC3)c2)cnc1N)c1c(Cl)ccc(F)c1Cl` [Crizotinib] + Cn1cnc2c(F)c(Nc3ccc(Br)cc3Cl)c(C(=O)NOCCO)cc21 [Selumetinib] (first compound max 10 µM, 7x7, partner max 10 µM), the “combination Emax” value turned out to be 0.864 in the assay with WM1552C (Melanoma) and 0.491 in assay [1]. Besides, the Bliss excess was -0.0478 in assay [2]; -0.0748 in the assay with EB2 (Burkitt's Lymphoma); -0.009 in the assay with IM-9 (Non-Cancerous); -0.0101 with EW-7 (Ewing's Sarcoma); -0.0213 with 769-P (Kidney Carcinoma); 0.0436 in assay [3]. Besides, the Bliss excess in the assay with HCC70 (Breast Carcinoma) stood at 0.0191; in assay [4] it was 0.0094.

On to `CS(=O)(=O)CCNCc1ccc(-c2ccc3ncnc(Nc4ccc(OCc5cccc(F)c5)c(Cl)c4)c3c2)o1` [Lapatinib] + Cn1cnc2c(F)c(Nc3ccc(Br)cc3Cl)c(C(=O)NOCCO)cc21 [Selumetinib] (first compound max 10 µM, 7x7, partner max 10 µM), for which the “combination Emax” value in the assay on WM1552C (Melanoma) is 0.444; in assay [1], 0.846. For the same compound, the Bliss excess is -0.0355 in assay [2]; -0.0474 in the assay on EB2 (Burkitt's Lymphoma); -0.0826 in the assay on IM-9 (Non-Cancerous); 0.0166 in the assay on EW-7 (Ewing's Sarcoma); 0.0368 in the assay with 769-P (Kidney Carcinoma); -0.0056 in [3]. Moreover, the Bliss excess is 0.0408 in the assay on HCC70 (Breast Carcinoma) and -0.0273 in [4].

In the case of `O=C(c1cc(Cc2n[nH]c(=O)c3ccccc23)ccc1F)N1CCN(C(=O)C2CC2)CC1` [Olaparib] + CC1(C)CCC(CN2CCN(c3ccc(C(=O)NS(=O)(=O)c4ccc(NCC5CCOCC5)c([N+](=O)[O-])c4)c(Oc4cnc5[nH]ccc5c4)c3)CC2)=C(c2ccc(Cl)cc2)C1 [Venetoclax] (first compound max 10 µM, 7x7, partner max 1 µM), the figures for the “combination Emax” value (in the assay with WM1552C (Melanoma); in assay [1]) were 0.319 and 0.242, respectively. Further, the Bliss excess in assay [2] is 0.001; in the assay on EB2 (Burkitt's Lymphoma), -0.0324; with IM-9 (Non-Cancerous) it was 0.112; in the assay with EW-7 (Ewing's Sarcoma), 0.0125; in the assay with 769-P (Kidney Carcinoma), 0.0116; in assay [3] it was -0.0369. The results for the Bliss excess (in the assay with HCC70 (Breast Carcinoma); in assay [4]) were -0.0472 and -0.0527, respectively.

For the compound `O=C(c1cc(Cc2n[nH]c(=O)c3ccccc23)ccc1F)N1CCN(C(=O)C2CC2)CC1` [Olaparib] + CN(CC[C@H](CSC1=CC=CC=C1)NC2=C(C=C(C=C2)S(=O)(=O)NC(=O)C3=CC=C(C=C3)N4CCC(CC4)[C@H](C5=CC=CC=C5C6=CC=C(C=C6)Cl)O)S(=O)(=O)C(F)(F)F)CCO [AZD4320] (first compound max 10 µM, 7x7, partner max 1 µM), the entries for the “combination Emax” value (in the assay with WM1552C (Melanoma); in assay [1]) were 0.484 and 0.407, respectively. The Bliss excess in assay [2] was 0.0253; in the assay on EB2 (Burkitt's Lymphoma), -0.0537; with IM-9 (Non-Cancerous), 0.141; in the assay on EW-7 (Ewing's Sarcoma), 0.129; with 769-P (Kidney Carcinoma), -0.0143; in [3] it was -0.0169. For the same compound, the Bliss excess was 0.0129 with HCC70 (Breast Carcinoma) and -0.0363 in assay [4].

In the case of `O=C(c1cc(Cc2n[nH]c(=O)c3ccccc23)ccc1F)N1CCN(C(=O)C2CC2)CC1` [Olaparib] + COc1nnc2ccc(N3CCC(c4ccc(OCCN5CCN(C)C(=O)[C@H]5C)cc4)CC3)nn12 [AZD5153] (first compound max 10 µM, 7x7, partner max 1 µM), the figures for the “combination Emax” value (in the assay on WM1552C (Melanoma); in [1]) were 0.376 and 0.426, respectively. For the same compound, the Bliss excess in [2] was -0.0044; with EB2 (Burkitt's Lymphoma), -0.0329; in the assay with IM-9 (Non-Cancerous), 0.0107; in the assay on EW-7 (Ewing's Sarcoma), 0.0362; with 769-P (Kidney Carcinoma) it was -0.0374; in assay [3] it was -0.045. Further, the Bliss excess with HCC70 (Breast Carcinoma) was -0.0402; in assay [4], -0.0195.

With `O=C(c1cc(Cc2n[nH]c(=O)c3ccccc23)ccc1F)N1CCN(C(=O)C2CC2)CC1` [Olaparib] + Cc1c2c(nn1C)CSCc1cc(n(C)n1)CSc1cc(c3ccccc3c1)OCCCc1c(C(=O)O)n(C)c3c-2c(Cl)ccc13 [AZD5991] (first compound max 10 µM, 7x7, partner max 1 µM), the entries for the “combination Emax” value (with WM1552C (Melanoma); in assay [1]) were 0.856 and 0.616, respectively. Further, the Bliss excess in [2] is -0.0207; in the assay on EB2 (Burkitt's Lymphoma), -0.0266; in the assay with IM-9 (Non-Cancerous) it was 0.0865; with EW-7 (Ewing's Sarcoma), 0.015; in the assay with 769-P (Kidney Carcinoma) it was 0.0074; in assay [3] it was -0.0573. In addition, the figures for the Bliss excess (with HCC70 (Breast Carcinoma); in [4]) were -0.0185 and -0.0539, respectively.

Regarding `Cc1nc(-c2cn3c(n2)-c2ccc(-c4cnn(C(C)(C)C(N)=O)c4)cc2OCC3)n(C(C)C)n1` [Taselisib] + O=C(Nc1ccc2[nH]nc(-c3ccncc3)c2c1)[C@@H]1CCN(CC(=O)N2CCN(c3ccc(-c4ncccn4)cc3)CC2)C1 [SCH772984] (first compound max 10 µM, 7x7, partner max 5 µM), the figures for the “combination Emax” value (in the assay with WM1552C (Melanoma); in assay [1]) were 0.813 and 0.606, respectively. Moreover, the Bliss excess in assay [2] was 0.0132; in the assay on EB2 (Burkitt's Lymphoma) it was 0.0182; with IM-9 (Non-Cancerous) it was -0.0407; in the assay on EW-7 (Ewing's Sarcoma) it was 0.0128; in the assay with 769-P (Kidney Carcinoma) it was 0.0852; in assay [3], 0.116. In addition, the figures for the Bliss excess (with HCC70 (Breast Carcinoma); in assay [4]) were 0.0593 and -0.0398, respectively.

For `CC1(C)CCC(CN2CCN(c3ccc(C(=O)NS(=O)(=O)c4ccc(NCC5CCOCC5)c([N+](=O)[O-])c4)c(Oc4cnc5[nH]ccc5c4)c3)CC2)=C(c2ccc(Cl)cc2)C1` [Venetoclax] + CS(=O)(=O)CCNCc1ccc(-c2ccc3ncnc(Nc4ccc(OCc5cccc(F)c5)c(Cl)c4)c3c2)o1 [Lapatinib] (first compound max 1 µM, 7x7, partner max 10 µM), the “combination Emax” value in the assay on WM1552C (Melanoma) came to 0.187; in [1], 0.826. Further, the Bliss excess in assay [2] is -0.0182; with EB2 (Burkitt's Lymphoma), -0.039; in the assay with IM-9 (Non-Cancerous) it was 0.0902; with EW-7 (Ewing's Sarcoma) it was 0.0078; in the assay on 769-P (Kidney Carcinoma), 0.0871; in assay [3], -0.0233. Also, the values for the Bliss excess (with HCC70 (Breast Carcinoma); in assay [4]) were -0.0318 and -0.0664, respectively.

The record behind these values is the supplement of paper PMC11061612.
